Results reported in patent publication US8796244B2, “Imidazopyridine derivatives as inhibitors of receptor tyrosine kinases” (Astex Therapeutics Ltd, priority 2008, dated 2014).
Where a name gives a salt, the structure may show the parent alone. Read-outs that look alike come from different tables or passages of the source.

Assays:
VEGFR2 = VEGFR2 (Homo sapiens (Human), UniProt P35968); assay: VEGFR2 in vitro kinase inhibitory activity assay (TRF, Flt3 substrate); format: biochemical
[1] = system: parental wild-type Ba/F3 cells; assay: Ba/F3 (WT) cell proliferation assay (Alamar Blue); format: cell-based; details: Mus musculus; for inhibition at 3 µM / inhibition at 1 µM / inhibition at 10 µM: BaF3, read-out: BaF3 WT prolif, % inhibition
[2] = system: LP-1 cell line (FGF-1/Heparin induced pERK); assay: Cell-based pERK ELISA, LP-1 cells; details: Homo sapiens; for IC50: LP-1, read-out: LP-1 pERK ELISA (μM)
[3] = BaF3, 72 hours, Alamar Blue, read-out: BaF3 WT prolif
[4] = BaF3, 72 h, read-out: BaF3 WT prolif (μM)

Sequence of VEGFR2 (P35968 20-1356): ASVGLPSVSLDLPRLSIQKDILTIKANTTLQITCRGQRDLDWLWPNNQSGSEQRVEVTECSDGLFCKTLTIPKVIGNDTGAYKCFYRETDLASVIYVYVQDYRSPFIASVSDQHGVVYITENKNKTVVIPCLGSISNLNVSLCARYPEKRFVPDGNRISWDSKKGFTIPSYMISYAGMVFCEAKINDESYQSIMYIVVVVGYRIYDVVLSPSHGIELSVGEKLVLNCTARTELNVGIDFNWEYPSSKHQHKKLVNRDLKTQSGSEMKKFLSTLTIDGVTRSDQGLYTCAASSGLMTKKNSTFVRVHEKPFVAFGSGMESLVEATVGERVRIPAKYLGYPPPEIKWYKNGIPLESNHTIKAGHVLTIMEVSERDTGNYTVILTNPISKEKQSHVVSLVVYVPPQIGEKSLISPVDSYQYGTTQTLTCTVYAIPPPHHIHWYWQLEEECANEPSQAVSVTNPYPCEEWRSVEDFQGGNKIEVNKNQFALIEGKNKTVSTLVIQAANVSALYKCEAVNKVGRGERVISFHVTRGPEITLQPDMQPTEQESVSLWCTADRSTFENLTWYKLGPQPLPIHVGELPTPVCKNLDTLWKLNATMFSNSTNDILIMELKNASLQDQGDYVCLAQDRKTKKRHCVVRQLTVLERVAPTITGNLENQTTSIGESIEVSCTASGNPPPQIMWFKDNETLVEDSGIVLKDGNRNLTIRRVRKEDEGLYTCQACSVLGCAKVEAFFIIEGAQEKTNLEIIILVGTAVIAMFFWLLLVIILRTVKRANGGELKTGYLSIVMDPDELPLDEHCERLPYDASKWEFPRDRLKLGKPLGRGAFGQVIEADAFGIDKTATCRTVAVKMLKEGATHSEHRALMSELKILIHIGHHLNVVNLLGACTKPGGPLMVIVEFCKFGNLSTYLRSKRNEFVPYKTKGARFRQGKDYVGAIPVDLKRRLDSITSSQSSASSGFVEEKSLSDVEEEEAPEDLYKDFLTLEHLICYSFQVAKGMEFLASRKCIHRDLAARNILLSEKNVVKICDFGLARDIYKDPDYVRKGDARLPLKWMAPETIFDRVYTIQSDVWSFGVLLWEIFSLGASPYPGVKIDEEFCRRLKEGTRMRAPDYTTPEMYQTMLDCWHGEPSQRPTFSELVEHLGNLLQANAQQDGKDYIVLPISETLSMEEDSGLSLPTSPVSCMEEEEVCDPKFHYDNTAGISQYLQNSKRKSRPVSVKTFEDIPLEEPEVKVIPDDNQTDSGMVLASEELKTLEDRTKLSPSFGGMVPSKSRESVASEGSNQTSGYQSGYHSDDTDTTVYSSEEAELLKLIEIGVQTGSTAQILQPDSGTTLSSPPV

Row | Structure (SMILES) | IC50 [1, 3] | inhibition at 10 µM [1] | IC50 [2] | other results
1 | O=C(NCC(F)(F)F)Nc1cc(OC2CCCC2)cc(-c2cnc3cc(-c4ncccn4)ccn23)c1 [Compound 284] | 3.4 µM |  |  | inhibition at 10 µM (VEGFR2; 1 h, at 10 μM, read-out: VEGFR2 % I): 62%; inhibition at 3 µM [1]: 14%
2 | COCCOc1cc(NC(=O)NCC(F)(F)F)cc(-c2cnc3cc(-c4ncc(F)c(N)n4)ccn23)c1 [Compound 285] |  | 10% |  | inhibition at 3 µM (VEGFR2; 1 h, read-out: VEGFR2 % I): 51%; inhibition at 1 µM [1]: 12%
3 | Cc1cc(NC(=O)NCC(F)(F)F)cc(-c2cnc3cc(-c4ncc(F)c(N)n4)ccn23)c1 [Compound 291] |  |  |  | inhibition at 0.98 µM (VEGFR2; 1 h, at 0.98 μM, read-out: VEGFR2 % I): 57%; inhibition at 1 µM [1]: 24%
4 | Cc1cc(NC(=O)NCC(F)(F)F)cc(-c2cnc3cc(-c4ccnc(C(F)(F)F)n4)ccn23)c1 [Compound 306] |  | 0% |  | inhibition at 1 µM (VEGFR2; 1 h, read-out: VEGFR2 % I): 60%
5 | Nc1nc(-c2ccn3c(-c4cc(NC(=O)NCC(F)(F)F)ccc4F)cnc3c2)ncc1F [Compound 311] |  | 32% |  | inhibition at 0.978 µM (VEGFR2; 1 h, read-out: VEGFR2 % I): 20%; inhibition at 3 µM [1]: 2%
6 | CCCCOC(=O)Nc1nc(-c2ccn3c(-c4cccc(NC(=O)NCC(F)(F)F)c4)cnc3c2)ncc1F [Compound 314] |  | 21% |  | inhibition at 3 µM (VEGFR2; 1 h, read-out: VEGFR2 % I): 62%
7 | Cc1ccc(NC(=O)NCC(F)(F)F)cc1-c1cnc2cc(C#Cc3cncn3C)ccn12 [Compound 326] |  | 18% |  | inhibition at 0.978 µM (VEGFR2; 1 h, read-out: VEGFR2 % I): 45%
8 | O=C(NCC(F)(F)F)Nc1cccc(-c2cnc3cc(-c4ncccn4)ccn23)c1 [Example 114, 1-{3-[7-(Pyrimidin-2-yl)-imidazo[1,2-a]pyridin-3-yl]-phenyl}-3-(2,2,2-trifluoro-ethyl)-urea hydrochloride] |  |  | 0.047 µM | IC50 [1, 4]: 0.65 µM
9 | Nc1ccc(-c2ccn3c(-c4cccc(NC(=O)NCC(F)(F)F)c4)cnc3c2)nc1 [Example 124, 1-{3-[7-(5-Amino-pyridin-2-yl)-imidazo[1,2-a]pyridin-3-yl]-phenyl}-3-(2,2,2-trifluoro-ethyl)-urea hydrochloride] |  |  | 0.024 µM | IC50 [1, 4]: 0.27 µM
10 | O=C(NCC(F)(F)F)Nc1cccc(-c2cnc3cc(-c4ccc(=O)n(CCO)n4)ccn23)c1 [Example 126, 1-(3-{7-[1-(2-Hydroxy-ethyl)-6-oxo-1,6-dihydro-pyridazin-3-yl]-imidazol[1,2-a]pyridin-3-yl}-phenyl)-3-(2,2,2-trifluoro-ethyl)-urea] |  | 3.7% | 0.98 µM | 
11 | CNc1ccc(-c2ccn3c(-c4cccc(NC(=O)NCC(F)(F)F)c4)cnc3c2)nn1 [Example 132, 1-{3-[7-(6-Methylamino-pyridazin-3-yl)-imidazo[1,2-a]pyridin-3-yl]-phenyl}-3-(2,2,2-trifluoro-ethyl)-urea] |  | 22.9% | 0.172 µM | 
12 | O=C(NCC(F)(F)F)Nc1cccc(-c2cnc3cc(-c4ccc(N5CCCC(O)C5)nn4)ccn23)c1 (stereo not shown) [Example 133, 1-(3-{7-[6-(3-Hydroxy-piperidin-1-yl)-pyridazin-3-yl]-imidazo[1,2-a]pyridin-3-yl}-phenyl)-3-(2,2,2-trifluoro-ethyl)-urea] |  | 31% | 0.0714 µM | inhibition at 3 µM [1]: 34%
13 | Cc1cnnc(-c2ccn3c(-c4cccc(NC(=O)NCC(F)(F)F)c4)cnc3c2)c1 [Example 137, 1-{3-[7-(5-Methyl-pyridazin-3-yl)-imidazo[1,2-a]pyridin-3-yl]-phenyl}-3-(2,2,2-trifluoro-ethyl)-urea] |  | 23% | 0.034 µM | 
14 | COc1cnc(-c2ccn3c(-c4cccc(NC(=O)NCC(F)(F)F)c4)cnc3c2)nc1 [Example 138, 1-{3-[7-(5-Methoxy-pyrimidin-2-yl)-imidazo[1,2-a]pyridin-3-yl]-phenyl}-3-(2,2 ,2-trifluoro-ethyl)-urea] |  |  | 0.038 µM | inhibition at 3 µM [1]: 36%
15 | O=C(NCC(F)(F)F)Nc1cccc(-c2cnc3cc(-c4nccnn4)ccn23)c1 [Example 141, 1-[3-(7-[1,2,4]-Triazin-3-yl-imidazo[1,2-a]pyridin-3-yl)-phenyl]-3-(2,2,2-trifluoro-ethyl)-urea] | 0.042 µM |  | 0.11 µM | 
16 | CN(C)CCCOc1ccc(-c2ccn3c(-c4cccc(NC(=O)NCC(F)(F)F)c4)cnc3c2)cn1 [Example 144, 1-(3-{7-[6-(3-Dimethylamino-propoxy)-pyridin-3-yl]-imidazo[1,2-a]pyridin-3-yl}-phenyl)-3-(2,2,2-trifluoro-ethyl)-urea] | 3.6 µM |  | 0.13 µM | 
17 | Nc1cc(Cl)cnc1-c1ccn2c(-c3cccc(NC(=O)NCC(F)(F)F)c3)cnc2c1 [Example 146, 1-{3-[7-(3-Amino-5-chloro-pyridin-2-yl)-imidazo[1,2-a]pyridin-3-yl]-phenyl}-3-(2,2,2-trifluoro-ethyl)-urea] |  | 1.2% |  | inhibition at 1 µM (VEGFR2; 1 h, read-out: VEGFR2 % I): 51%
18 | O=C(NCC(F)(F)F)Nc1cncc(-c2cnc3cc(-c4cnn(C5CCNCC5)c4)ccn23)c1 [Example 152, 1-{5-[7-(1-Piperidin-4-yl-1H-pyrazol-4-yl)-imidazo[1,2-a]pyridin-3-yl]-pyridin-3-yl}-3-(2,2,2-trifluoro-ethyl)-urea] |  | 10% | 3.3 µM | 
19 | NC(=O)Nc1cccc(-c2cnc3cc(-c4ccc(F)cc4)ccn23)c1 [Example 154, {3-[7-(4-Fluoro-phenyl)-imidazo[1,2-a]pyridin-3-yl]-phenyl}-urea] | 5.6 µM |  | 0.086 µM | 
20 | Cc1cc(C)nc(-c2ccn3c(-c4cccc(NC(=O)NCC(F)(F)F)c4)cnc3c2)n1 [Example 160] |  |  |  | inhibition at 1 µM (VEGFR2; 1 h, read-out: VEGFR2 % I): 49.5%
21 | CNc1ncc(-c2ccn3c(-c4cccc(NC(=O)NCC(F)(F)F)c4)cnc3c2)cc1C [Example 161] | 0.15 µM |  | 0.01 µM | 
22 | CCNC(=O)Nc1cccc(-c2cnc3cc(-c4ncc(F)c(N)n4)ccn23)c1 [Example 163] |  | 11% | 0.22 µM | inhibition at 3 µM [1]: 38%

Row | Structure (SMILES) | IC50 [1, 3] | inhibition at 10 µM [1] | IC50 [2] | other results
23 | O=C(NCC(F)(F)F)Nc1cccc(-c2cnc3cc(-c4ncc(F)c(NCCO)n4)ccn23)c1 [Example 164] | 4.2 µM |  | 0.26 µM | 
24 | Nc1nc(-c2ccn3c(-c4cccc(NC(=O)NC5CC5)c4)cnc3c2)ncc1F [Example 166] |  | 0% | 0.29 µM | 
25 | NC(=O)Nc1cccc(-c2cnc3cc(-c4ncc(F)c(N)n4)ccn23)c1 [Example 167] |  | 0% |  | inhibition at 10 µM ([2]; LP-1, read-out: LP-1 pERK ELISA, % inhibition): 60%
26 | Nc1nc(-c2ccn3c(-c4cncc(NC(=O)NCC(F)(F)F)c4)cnc3c2)ncc1F [Example 168] |  | 0% | 0.43 µM | 
27 | COc1cnc(-c2ccn3c(-c4cccc(NC(=O)NCC(F)(F)F)c4)cnc3c2)nc1N [Example 173] |  | 22% | 0.052 µM | inhibition at 3 µM [1]: 29.5%
28 | Nc1cnc(-c2ccn3c(-c4cccc(NC(=O)NCC(F)(F)F)c4)cnc3c2)nc1 [Example 174] | 1.5 µM |  | 0.49 µM | 
29 | Cc1cnc(-c2ccn3c(-c4cccc(NC(=O)NCC(F)(F)F)c4)cnc3c2)nc1N [Example 175] | 10 µM |  | 0.077 µM | 
30 | Cc1cnc(N)nc1-c1ccn2c(-c3cccc(NC(=O)NCC(F)(F)F)c3)cnc2c1 [Example 176] |  | 59% | 0.33 µM | 
31 | Nc1nc(-c2ccn3c(-c4cccc(NC(=O)NCC(F)(F)F)c4)cnc3c2)ncc1C(F)(F)F [Example 178] | 4.52 µM |  | 0.018 µM | 
32 | Nc1ncc(C(F)(F)F)c(-c2ccn3c(-c4cccc(NC(=O)NCC(F)(F)F)c4)cnc3c2)n1 [Example 179] |  |  |  | IC50 (VEGFR2): > 10000 nM; inhibition at 1 µM [1]: 22%
33 | COc1nccc(-c2ccn3c(-c4cccc(NC(=O)NCC(F)(F)F)c4)cnc3c2)n1 [Example 181] | 0.49 µM |  | 0.046 µM | 
34 | NCCNc1nc(-c2ccn3c(-c4cccc(NC(=O)NCC(F)(F)F)c4)cnc3c2)ncc1F [Example 182] | 10 µM |  | 2.5 µM | 
35 | COc1cc(-c2ccn3c(-c4cccc(NC(=O)NCC(F)(F)F)c4)cnc3c2)ncn1 [Example 183] | 0.29 µM |  | 0.028 µM | 
36 | NC(=O)c1ccnc(-c2ccn3c(-c4cccc(NC(=O)NCC(F)(F)F)c4)cnc3c2)n1 [Example 185] |  |  | 0.14 µM | inhibition at 3 µM [1]: 0%
37 | O=C(NCC(F)(F)F)Nc1cccc(-c2cnc3cc(/C=C/c4ccccn4)ccn23)c1 [Example 186] | 0.32 µM |  | 0.019 µM | 
38 | COc1ncc(-c2ccn3c(-c4cccc(NC(=O)NCC(F)(F)F)c4)cnc3c2)cc1C [Example 188] | 0.43 µM |  | 0.09 µM | 
39 | O=C(NCC(F)(F)F)Nc1cccc(-c2cnc3cc(-c4nc(NC5CCC5)ncc4C(F)(F)F)ccn23)c1 [Example 191] |  |  |  | IC50 (VEGFR2): > 30000 nM; inhibition at 1 µM [1]: 18%
40 | O=C(NCC(F)(F)F)Nc1cccc(-c2cnc3cc(-c4ncc(C(F)(F)F)c(NC5CCC5)n4)ccn23)c1 [Example 192] |  |  |  | IC50 (VEGFR2): > 3000 nM; inhibition at 3 µM [1]: 49%
41 | CC(C)(C)OC(=O)NC1CN(c2ccnc(-c3ccn4c(-c5cccc(NC(=O)NCC(F)(F)F)c5)cnc4c3)n2)C1 [Example 193] | 1.5 µM |  |  | inhibition at 0.89 µM (VEGFR2; 1 h, at 0.89 μM, read-out: VEGFR2 % I): 36%; inhibition at 3.11 µM (VEGFR2; 1 h, at 3.11 μM, read-out: VEGFR2 % I): 48%
42 | Nc1cc(-c2ccn3c(-c4cccc(NC(=O)NCC(F)(F)F)c4)cnc3c2)nc(C(F)(F)F)n1 [Example 210] |  |  |  | inhibition at 0.1 µM (VEGFR2; 1 h, at 0.1 μM, read-out: VEGFR2 % I): 42%; inhibition at 3 µM [1]: 13%
43 | CC(=O)N1CC(n2cc(-c3ccn4c(-c5cccc(NC(=O)NCC(F)(F)F)c5)cnc4c3)cn2)C1 [Example 212] |  |  |  | IC50 (VEGFR2): > 300 nM; inhibition at 3 µM [1]: 10%
44 | O=C(NCC(F)(F)F)Nc1cccc(-c2cnc3cc(-c4ccc(C(=O)N5CCOCC5)cn4)ccn23)c1 [Example 223] |  |  |  | inhibition at 0.3 µM (VEGFR2; 1 h, at 0.3 μM, read-out: VEGFR2 % I): 39%; inhibition at 3 µM [1]: 45%
